Measurements from US20240279278A1, “NMU RECEPTOR 2 AGONISTS” (Boehringer Ingelheim International GmbH, priority 2023, published 2024).
Residues, ends and D or L forms follow the SMILES beside them.

Assays:
Type in all cases: cell-based
human NMUR1 receptor = biological target: T1, human NMUR1 receptor (Homo sapiens, UniProt Q9HB89); assay: IP1 Gq HTRF assay, activation of human NMUR1 in buffer; conditions: CHO-K1 cells expressing human NMUR1, stimulation buffer with 0.1% BSA; read-out: EC50 (hNMUR1) buffer
T1 construct: expressed in transfected cells; host or cells: CHO-K1
T1 sequence (Q9HB89 1-426): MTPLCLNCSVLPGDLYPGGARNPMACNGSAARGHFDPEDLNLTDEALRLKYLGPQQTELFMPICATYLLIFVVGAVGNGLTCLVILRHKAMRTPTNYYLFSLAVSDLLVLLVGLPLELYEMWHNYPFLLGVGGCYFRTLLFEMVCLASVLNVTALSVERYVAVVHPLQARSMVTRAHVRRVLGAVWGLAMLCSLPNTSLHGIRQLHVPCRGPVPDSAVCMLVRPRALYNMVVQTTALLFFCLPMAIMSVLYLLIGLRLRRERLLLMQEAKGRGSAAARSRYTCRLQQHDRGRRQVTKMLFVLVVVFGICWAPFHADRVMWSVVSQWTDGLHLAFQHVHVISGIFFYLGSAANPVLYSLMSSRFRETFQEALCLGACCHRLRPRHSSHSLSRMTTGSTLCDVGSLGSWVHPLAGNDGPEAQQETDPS
Source text: (§1) Example 3: IP1 Gq HTRF Assay Activation of Human NMUR2 or Human NMUR1 in Buffer Application of the Homogenous Time Resolved Fluorescence (HTRF) technology optimized for Gq coupled receptors has been described in detail in the Cisbio IP-One Gq kit manual. In brief, a FRET signal (FRET: fluorescence resonance energy transfer) is generated between the donor label of an IP-One antibody (anti-IP1-Tb) and the acceptor label of a tagged IP-One (IP1-d2). Agonism of a Gq coupled receptor increases intracellular IP-One, which competes with labeled IP-One and leads to a reduction of the FRET signal. Frozen stocks of CHO-K1 cells stably expressing the human NMUR1 or NMUR2 receptor were thawed and 5000 cells were seeded in culture medium (HAM'S F12, 10% FCS) into each well of a 384-well assay plate. After seeding, cells were incubated for 24 h in a humidified incubator at 37° C. and 5% CO2. Next, cells were washed once with 50 μL of wash buffer (20 mM Hepes, 1×HBSS, pH 7.4), followed by addition of either 10 μL of stimulation buffer (20 mM Hepes, 1×HBSS, 50 mM LiCl, 0.1% BSA, pH 7.4). Peptide agonists to be tested were dissolved in 100% DMSO and pre-diluted in stimulation buffer at a suitable concentration range for an 8 pt dose-response curve. 5 μL of peptide pre-dilution were then added to each well, followed by another 5 μL of stimulation buffer to give a final concentration of 1% DMSO. Samples were subsequently incubated for 1 hour in a humidified incubator at 37° C. After addition of 5 μL each of IP1-d2 and anti-IP1-Tb, samples were incubated for another 1 hour at room temperature and FRET signals (ratio 665 nm/620 nm) were measured. EC50 values were calculated by nonlinear regression using a 4-parameter sigmoidal curve fit.

human NMUR2 receptor [1] = biological target: T2, human NMUR2 receptor (Homo sapiens, UniProt Q9GZQ4); assay: IP1 Gq HTRF assay, activation of human NMUR2 in buffer; parameters: expressed in transfected cells; host or cells: CHO-K1; conditions: CHO-K1 cells expressing human NMUR2, stimulation buffer with 0.1% BSA; read-out: EC50 (hNMUR2) buffer
T2 sequence (Q9GZQ4 whole entry): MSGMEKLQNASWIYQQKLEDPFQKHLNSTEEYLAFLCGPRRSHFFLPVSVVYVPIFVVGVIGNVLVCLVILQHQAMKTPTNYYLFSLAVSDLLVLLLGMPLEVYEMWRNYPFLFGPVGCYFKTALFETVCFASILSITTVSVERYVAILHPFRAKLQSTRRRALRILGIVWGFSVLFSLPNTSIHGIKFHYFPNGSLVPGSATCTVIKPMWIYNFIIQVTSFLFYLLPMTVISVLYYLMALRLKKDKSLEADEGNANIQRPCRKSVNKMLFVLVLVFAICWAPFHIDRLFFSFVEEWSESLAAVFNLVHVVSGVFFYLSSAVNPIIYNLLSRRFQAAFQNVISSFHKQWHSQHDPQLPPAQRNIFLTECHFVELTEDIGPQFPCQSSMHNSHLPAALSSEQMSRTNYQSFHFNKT
Source text: as §1

human NMUR2 receptor [2] = biological target: T2, human NMUR2 receptor; assay: IP1 Gq HTRF assay, activation of human NMUR2 in human plasma; parameters: expressed in transfected cells; host or cells: CHO-K1; conditions: CHO-K1 cells expressing human NMUR2, 100% human plasma; read-out: EC50 (hNMUR2) human plasma
Source text: Example 4: IP1 Gq HTRF Assay Activation of Human NMUR2 in Human Plasma Application of the Homogenous Time Resolved Fluorescence (HTRF) technology optimized for Gq coupled receptors has been described in detail in the Cisbio IP-One Gq kit manual. In brief, a FRET signal is generated between the donor label of an IP-One antibody (anti-IP1-Tb) and the acceptor label of a tagged IP-One (IP1-d2). Agonism of a Gq coupled receptor increases intracellular IP-One, which competes with labeled IP-One and leads to a reduction of the FRET signal. Frozen stocks of CHO-K1 cells stably expressing the human NMUR1 receptor or human NMUR2 receptor were thawed and 5000 cells were seeded in culture medium (HAM'S F12, 10% FCS) into each well of a 384-well assay plate. After seeding, cells were incubated for 24 h in a humidified incubator at 37° C. and 5% CO2. Next, cells were washed once with […] of wash buffer (20 mM Hepes, 1×HBSS, pH 7.4), followed by addition of […] (100% human plasma, 50 mM LiCl). Peptide agonists to be tested were dissolved in 100% DMSO and pre-diluted in plasma at a suitable concentration range for an 8 pt dose-response curve. 5 μL of peptide pre-dilution were then added to each well, followed by another 5 μL of plasma to give a final concentration of 1% DMSO. Samples were subsequently incubated for 1 hour in a humidified incubator at 37° C. The plasma solution was replaced by 20 μL of stimulation buffer. After addition of 5 μL each of IP1-d2 and anti-IP1-Tb, samples were incubated for another 1 hour at room temperature and FRET signals (ratio 665 nm/620 nm) were measured. EC50 values were calculated by nonlinear regression using a 4-parameter sigmoidal curve fit.

Compound	EC50 (human NMUR1 receptor) [nM]	EC50 (human NMUR2 receptor [1]) [nM]	EC50 (human NMUR2 receptor [2]) [nM]
CCCC[C@H](NC(=O)[C@H](CC(C)C)N(C)C(=O)[C@H](Cc1ccccc1)NC(=O)[C@H](Cc1ccc(O)cc1)NC(=O)CN1CCN(CCNC(=O)CN(C)C(=O)CN(C)C(=O)CN(C)C(=O)CN(C)C(=O)CN(C)C(=O)CN(C)C(=O)CN(C)C(=O)CN(C)C(=O)CN(C)C(=O)CN(C)C(=O)CN(C)C(=O)CN(C)C(=O)CC[C@H](NC(=O)CC[C@H](NC(=O)CC[C@H](NC(=O)CC[C@H](NC(=O)CCCCCCCCCCCCCCCCC(=O)O)C(=O)O)C(=O)O)C(=O)O)C(=O)O)CC1)C(=O)N[C@@H](CCCNC(=N)N)C(=O)N1CCC[C@H]1C(=O)N[C@@H](CCCNC(=N)N)C(=O)NCC(N)=O [Compound 2, C18DA-gGlu4-Sar12-AEPipAc-Tyr-Phe-NMeLeu-Nle-Arg-Pro-Arg-Gly-NH2]	220	1.1	3.7
CCCC[C@H](NC(=O)[C@H](CC(C)C)N(C)C(=O)[C@H](Cc1ccccc1)NC(=O)[C@H](Cc1ccc(O)cc1)NC(=O)CN1CCN(CCNC(=O)CN(C)C(=O)CN(C)C(=O)CN(C)C(=O)CN(C)C(=O)CN(C)C(=O)CN(C)C(=O)CN(C)C(=O)CN(C)C(=O)CN(C)C(=O)CN(C)C(=O)CN(C)C(=O)CN(C)C(=O)CC[C@H](NC(=O)CC[C@H](NC(=O)CC[C@H](NC(=O)CCCCCCCCCCCCCCCCCCC(=O)O)C(=O)O)C(=O)O)C(=O)O)CC1)C(=O)N[C@@H](CCCNC(=N)N)C(=O)N(C)[C@@H](C)C(=O)N[C@@H](CCCNC(=N)N)C(=O)NCC(N)=O [Compound 63, C20DA-gGlu3-Sar12-AEPipAc-Tyr-Phe-NMeLeu-Nle-Arg-NMeAla-Arg-Gly-NH2]		4.5	14.9
CCCC[C@H](NC(=O)[C@H](CC(C)C)N(C)C(=O)[C@H](Cc1ccccc1)NC(=O)[C@H](Cc1ccc(O)cc1)NC(=O)CN1CCN(CCNC(=O)CN(C)C(=O)CN(C)C(=O)CN(C)C(=O)CN(C)C(=O)CN(C)C(=O)CN(C)C(=O)CN(C)C(=O)CN(C)C(=O)CN(C)C(=O)CC[C@H](NC(=O)CC[C@H](NC(=O)CCCCCCCCCCCCCCCCC(=O)O)C(=O)O)C(=O)O)CC1)C(=O)N[C@@H](CCCNC(=N)N)C(=O)N(C)[C@@H](C)C(=O)N[C@@H](CCCNC(=N)N)C(=O)NCC(N)=O [Compound 66, C18DA-gGlu2-Sar9-AEPipAc-Tyr-Phe-NMeLeu-Nle-Arg-NMeAla-Arg-Gly-NH2] (HELM PEPTIDE1{[O=C(O)CCCCCCCCCCCCCCCCC(=O)[*:2]].[gGlu].[gGlu].[Sar].[Sar].[Sar].[Sar].[Sar].[Sar].[Sar].[Sar].[Sar].[O=C(CN1CCN(CCN[*:1])CC1)[*:2]].Y.F.[meL].[Nle].R.[meA].R.G.[am]}$$$$V2.0)		1.6	18.9
CCCC[C@H](NC(=O)[C@H](CC(C)C)N(C)C(=O)[C@H](Cc1ccccc1)NC(=O)[C@H](Cc1ccc(O)cc1)NC(=O)CN1CCN(CCNC(=O)CN(C)C(=O)CN(C)C(=O)CN(C)C(=O)CN(C)C(=O)CN(C)C(=O)CN(C)C(=O)CN(C)C(=O)CN(C)C(=O)CN(C)C(=O)CC[C@H](NC(=O)CC[C@H](NC(=O)CCCCCCCCCCCCCCCCC(=O)O)C(=O)O)C(=O)O)CC1)C(=O)N[C@@H](CCCNC(=N)N)C(=O)N1CCC[C@H]1C(=O)N[C@@H](CCCNC(=N)N)C(=O)NCC(N)=O [Compound 67, C18DA-gGlu2-Sar9-AEPipAc-Tyr-Phe-NMeLeu-Nle-Arg-Pro-Arg-Gly-NH2] (HELM PEPTIDE1{[O=C(O)CCCCCCCCCCCCCCCCC(=O)[*:2]].[gGlu].[gGlu].[Sar].[Sar].[Sar].[Sar].[Sar].[Sar].[Sar].[Sar].[Sar].[O=C(CN1CCN(CCN[*:1])CC1)[*:2]].Y.F.[meL].[Nle].R.P.R.G.[am]}$$$$V2.0)		0.9	9.9
CCCC[C@H](NC(=O)[C@H](CC(C)C)N(C)C(=O)[C@H](Cc1ccccc1)NC(=O)[C@H](Cc1ccc(O)cc1)NC(=O)CN1CCN(C(=O)CN(C)C(=O)CN(C)C(=O)CN(C)C(=O)CN(C)C(=O)CN(C)C(=O)CN(C)C(=O)CN(C)C(=O)CN(C)C(=O)CN(C)C(=O)CN(C)C(=O)CN(C)C(=O)CN(C)C(=O)CC[C@H](NC(=O)CC[C@H](NC(=O)CC[C@H](NC(=O)CCCCCCCCCCCCCCCCC(=O)O)C(=O)O)C(=O)O)C(=O)O)CC1)C(=O)N[C@@H](CCCNC(=N)N)C(=O)N1CCC[C@H]1C(=O)N[C@@H](CCCNC(=N)N)C(=O)NCC(N)=O [Compound 77, C18DA-gGlu3-Sar12-PipAc-Tyr-Phe-NMeLeu-Nle-Arg-Pro-Arg-Gly-NH2]		0.8	5.2
CCCC[C@H](NC(=O)[C@H](CC(C)C)N(C)C(=O)[C@H](Cc1ccccc1)NC(=O)[C@H](Cc1ccc(O)cc1)NC(=O)CN1CCN(C(=O)CN(C)C(=O)CN(C)C(=O)CN(C)C(=O)CN(C)C(=O)CN(C)C(=O)CN(C)C(=O)CN(C)C(=O)CN(C)C(=O)CN(C)C(=O)CN(C)C(=O)CN(C)C(=O)CN(C)C(=O)CC[C@H](NC(=O)CC[C@H](NC(=O)CC[C@H](NC(=O)CCCCCCCCCCCCCCCCCCC(=O)O)C(=O)O)C(=O)O)C(=O)O)CC1)C(=O)N[C@@H](CCCNC(=N)N)C(=O)N1CCC[C@H]1C(=O)N[C@@H](CCCNC(=N)N)C(=O)NCC(N)=O [Compound 78, C20DA-gGlu3-Sar12-PipAc-Tyr-Phe-NMeLeu-Nle-Arg-Pro-Arg-Gly-NH2]		1.2	5.3
CCCC[C@H](NC(=O)[C@H](CC(C)C)N(C)C(=O)[C@H](Cc1ccccc1)NC(=O)[C@H](Cc1ccc(O)cc1)NC(=O)CN1CCN(C(=O)CN(C)C(=O)CN(C)C(=O)CN(C)C(=O)CN(C)C(=O)CN(C)C(=O)CN(C)C(=O)CN(C)C(=O)CN(C)C(=O)CN(C)C(=O)CN(C)C(=O)CN(C)C(=O)CN(C)C(=O)CN(C)C(=O)CN(C)C(=O)CN(C)C(=O)CC[C@H](NC(=O)CC[C@H](NC(=O)CC[C@H](NC(=O)CCCCCCCCCCCCCCCCCCC(=O)O)C(=O)O)C(=O)O)C(=O)O)CC1)C(=O)N[C@@H](CCCN)C(=O)N1CCC[C@H]1C(=O)N[C@@H](CCCNC(=N)N)C(=O)NCC(N)=O [Compound 80, C20DA-gGlu3-Sar15-PipAc-Tyr-Phe-NMeLeu-Nle-Orn-Pro-Arg-Gly-NH2] (HELM PEPTIDE1{[O=C(O)CCCCCCCCCCCCCCCCCCC(=O)[*:2]].[gGlu].[gGlu].[gGlu].[Sar].[Sar].[Sar].[Sar].[Sar].[Sar].[Sar].[Sar].[Sar].[Sar].[Sar].[Sar].[Sar].[Sar].[Sar].[O=C(CN1CCN([*:1])CC1)[*:2]].Y.F.[meL].[Nle].[Orn].P.R.G.[am]}$$$$V2.0)		1.9	7.1
